Test results: patent publication US5177251A, “Halogenated tetraenyl prostaglandin derivatives” (G. D. Searle & Co., priority 1991, dated 1993)

How the values were obtained:
gastric acid secretion = assay: Gastric acid secretion assay in dogs (Pavlov gastric pouch, meal-stimulated); assay type: in vivo, dog (adult female beagles); settings: into gastric pouch; for Gastric Antisecretory (Dog), % inhibition at 0.3: at 0.3 (column unit μg/kg); for ED50: Canis lupus familiaris, dog, total acid output over 4 hours after feeding, read-out: Gastric Antisecretory (Dog) ED50
Excerpt: The standard test used to detect gastric antisecretory activity is described as follows.
Adult female beagles, 6-11 kg body weight, were surgically prepared with innervated (Pavlov) gastric pouches that were drained by Thomas-type gastric cannulae. Following surgical recovery, each dog was trained to stand quietly in a dog restraining sling and was conscious for all studies. Experiments began at least 3 weeks after surgery, and no dog was used more than once per week.
Dogs were food-deprived with access to water for 24 hours prior to experiments. Following a 30 minute basal collection period, the prostaglandins or vehicle were administered into the gastric pouch in a 2-3 ml volume. Thirty minutes later the gastric pouch was emptied and gastric secretion was stimulated by feeding 10-12 oz of dog food (Fromm All Beef, Federal Foods Inc., Thiensville, Wis.). Gastric juice samples were collected from the pouch by gravity drainage over a 4 hour period at 30 minute intervals. The volume of secretion was measured (ml/30 min), and the acidity (mequiv/L) was determined by electrometric titration to pH 7.0 with 0.1 N NaOH. These two parameters were multiplied to obtain the total acid output (mequiv/30 minutes) for each collection period.
Percent reduction of total acid output from control was calculated over each 4 hour experiment for doses of prostaglandin. ED50 values and 95% confidence limits were determined from inhibition of secretion curves.

[1] = tested on: ethanol-induced gastric lesions; assay: Ethanol induced gastric lesion assay in rats (cytoprotective); assay type: in vivo, male Charles River rats; settings: rat, oral, 30 minutes before absolute ethanol; read-out: Ethanol-Induced Gastric Lesion *MED (Minimal effective dose)
Method: In the assay, 0.005-0.5 mg/kg is orally administered to adult 180-220 gram male Charles River rats which have been deprived of food for 24 hours. Thirty minutes later, 1.0 ml of absolute ethanol is administered intragastrically. The rats are sacrificed 60 minutes after alcohol administration and the gastric mucosa are visually examined for the presence of lesions. The number and severity of lesions are scored. A compound is judged active at the concentration evaluated if it provides a statistically significant reduction in the number and/or severity of lesions compared to the control group.

diarrhea = assay: Diarrheal assay in rats; assay type: in vivo, male Charles River rats; settings: intragastric, up to 8 hours
Method: (§1) Diarrhea is an undesirable side effect commonly associated with antisecretory and cytoprotective prostaglandins. […] Groups of 6 adult male Charles River rats weight rang®180 to 200 g, are fasted for 24 hours prior to administering the test substance. The prostaglandin to be tested is administered intragastrically in iso-osmotic phosphate buffer at a volume of 10 ml/kg at doses ranging from 100 to 3000 μg/kg. Control animals receive only the vehicle. The rats are placed in individual wire mesh cages and t he trays lined with brown paper. Diarrhea is assessed at hourly intervals on all or none basis for up to 8 hours after administration of the prostaglandin. Diarrhea is defined as any loose or watery stool. ED50 values are assessed for each hourly diarrheagenic response.

[2] = Acid stability in acetic acid:THF:water, thin layer chromatography; assay type: physicochemical; settings: 3:1:1 acetic acid:THF:water, room temperature, TLC, all time points
Method: Comparison of Acid Stability of Compound of Example 1 with its parent non-fluorinated analog.
Each compound (4 mg) was separately dissolved in 0.4 ml of a 3:1:1 solution of acetic acid:THF:water and kept at room temperature. Relative decomposition was assessed by thin layer chromatography analysis of aliquots withdrawn at 30 minutes, 1,2, 4 and 6 hours.

Diarrheal assay in rats = assay type: in vivo, male Charles River rats; settings: in vivo, po; rat, intragastric, up to 8 hours; read-out: Diarrhea Rat ED50
Method: as §1

Row | SMILES | Diarrhea Rat ED50 (diarrhea) [μ/kg] | Gastric Antisecretory (Dog), % inhibition at 0.3 (gastric acid secretion) [%] | ED50 (gastric acid secretion) [µg/kg] | minimal effective dose [1] [µg/kg] | decomposition at 30 minutes, 1, 2, 4 and 6 hours [2] | TD50 at 8 h (Diarrheal assay in rats) [µg/kg]
1 | COC(=O)CC/C=C\CC[C@H]1C(=O)C[C@@H](O)[C@@H]1/C=C/C[C@@](C)(O)/C=C/C=C/C(F)(F)F (relative stereo) [Example 6, (±)-methyl 11α,16R-dihydroxy-16-methyl-9-oxo-20-(trifluoromethyl) prosta-4Z,13E,17E,19E-tetraen-1-oate] |  | 84 |  |  |  | 
2 | COC(=O)CC/C=C\CC[C@H]1C(=O)C[C@@H](O)[C@@H]1/C=C/C[C@@](O)(/C=C/C1=CCCC1)CCl (relative stereo) [Example 5, (±)-methyl 7-[2β-[4R-(chloromethyl)-6-(1-cyclopenten-1-yl)-4-hydroxy-1E, 5E-hexadienyl]-3α-hydroxy-5-oxo-1α-cyclopentyl]-4Z-heptenoate] |  |  | > 0.1 | 10 |  | 
3 | COC(=O)CC/C=C\CC[C@H]1C(=O)C[C@@H](O)[C@@H]1/C=C/C[C@@](C)(O)/C=C/C(F)=C(C)C (relative stereo) [Example 8, (±)-methyl 19-fluoro-11α,16R-dihydroxy-16,20,20-trimethyl-9-oxoprosta-4Z,13E,17E, 19-tetraen-1-oate] |  |  |  | 1 |  | 
4 | COC(=O)CC/C=C\CC[C@H]1C(=O)C[C@@H](O)[C@@H]1/C=C/C[C@@](C)(O)/C=C/C=C(\C)C(F)(F)F (relative stereo) [Example 7, (±)-methyl 11α,16R-dihydroxy-16,20-dimethyl-9-oxo-20-(trifluoromethyl) prosta-4Z,13E,17E, 19E-tetraen-1-oate] |  | 74 |  | 50 |  | 
5 | COC(=O)CC/C=C\CC[C@H]1C(=O)C[C@@H](O)[C@@H]1/C=C/C[C@@](C)(O)/C=C/C=C(Cl)Cl (relative stereo) [Example 9, (±)-methyl 20,20-dichloro-11α,16R-dihydroxy-16-methyl-9-oxoprosta-4Z,13E,17E,19-tetraen-1-oate] |  |  |  | 2.5 |  | 1000

Now from value to molecule, other results behind:

Row | Diarrhea Rat ED50 (diarrhea) [μ/kg] | SMILES | Gastric Antisecretory (Dog), % inhibition at 0.3 (gastric acid secretion) [%] | ED50 (gastric acid secretion) [µg/kg] | minimal effective dose [1] [µg/kg] | decomposition at 30 minutes, 1, 2, 4 and 6 hours [2] | TD50 at 8 h (Diarrheal assay in rats) [µg/kg]
6 | > 3160 | COC(=O)CC/C=C\CC[C@H]1C(=O)C[C@@H](O)[C@@H]1/C=C/C[C@@](O)(/C=C/C1=CCCC1)CF [Example 2, methyl 7-[2β-[6-(1-cyclopenten-1-yl)-4R-(fluoromethyl)-4-hydroxy-1E,5E-hexadienyl]-3α-hydroxy-5-oxo-1R,1α-cyclopentyl]-4Z-heptenoate] |  |  | 1 |  | 
7 | > 3160 | COC(=O)CC/C=C\CC[C@H]1C(=O)C[C@@H](O)[C@@H]1/C=C/C[C@@](O)(/C=C/C1=CCCC1)C(F)(F)F (relative stereo) [Example 4, (±)-methyl 7-[2β-[6-(1-cyclopenten-1yl)-4R-hydroxy-4-(trifluoromethyl)-1E,5E-hexadienyl]-3α-hydroxy-5-oxo-1α-cyclopentyl]-4Z-heptenoate] |  | > 0.1 | 100 |  | 
8 | > 3160 | COC(=O)CC/C=C\CC[C@H]1C(=O)C[C@@H](O)[C@@H]1/C=C/C[C@@](O)(/C=C/C=C(C)C)CF (relative stereo) [Example 10, methyl 16R-(fluoromethyl)-11α,16-dihydroxy-20,20-dimethyl-9-oxoprosta-4Z,13E,17E,19-tetraen-1-oate] |  | < 0.3 | 25 |  | 
9 | > 3160 | COC(=O)CC/C=C\CC[C@H]1C(=O)C[C@@H](O)[C@@H]1/C=C/C[C@@](O)(/C=C/C1=CCCC1)CF (relative stereo) [Example 1, (±)-methyl 7-[2β-[6-(1-cyclopenten-1-yl)-4R-(fluoromethyl)-4-hydroxy-1E,5E-hexadienyl]-3α-hydroxy-5-oxo-lo-cyclopentyl]-4Z-heptenoate] |  |  | 1 | virtually no decomposition products were observed | 
10 | > 3160 | COC(=O)CC/C=C\CC[C@H]1C(=O)C[C@@H](O)[C@@H]1/C=C/C[C@@](O)(/C=C/C1=CCCC1)C(F)F (relative stereo) [Example 3, (±)-methyl 7-[2β-[6-(1-cyclopenten-1-yl)-4R-(difluoromethyl)-4-hydroxy-1E,5E-hexadienyl]-3α-hydroxy-5-oxo-1α-cyclopentyl]-4Z-heptenoate] |  | > 1 | 10 |  | 
